# Assays:
# [1] = system: small flower umbrella sedge; assay: Test B flooded paddy test; assay type: in vivo, Cyperus difformis; details: 1000 g ai/ha, visual rating, scale 0 to 100 (0 no effect, 100 complete control), 13 to 15 days
# Outline: (§1)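 Postemergence plants were sprayed with formulated test chemicals at 2 to 18 cm height (1- to 4-leaf stage); paddy species were grown to the 2-leaf stage. After 13 to 15 days in a greenhouse, injury was rated visually against untreated controls on a 0–100 scale (0 = no effect, 100 = complete control).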
# corn = assay: Test B pre-/postemergence herbicide test; assay type: in vivo, Zea mays; details: for Plant response rating, Corn: preemergence; for Corn plant response rating: postemergence, visual rating, scale 0 (no effect) to 100 (complete control)
# Outline: (§2)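 Test chemicals in a non-phytotoxic solvent mixture with surfactant were applied preemergence to seeded species and postemergence to plants 2-18 cm tall (1- to 4-leaf stage); rice and barnyardgrass were also tested in a flooded paddy at the 2-leaf stage. Visual rating versus controls after 13-15 days in greenhouse, scale 0 (no effect) to 100 (complete control).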
# pigweed = assay: Test B pre-/postemergence herbicide test; assay type: in vivo, Amaranthus retroflexus; details: for Plant response rating, Pigweed: preemergence; for Pigweed plant response rating: postemergence, visual rating, scale 0 (no effect) to 100 (complete control)
# Outline: as §2
# large crabgrass = assay: Test B pre-/postemergence herbicide test; assay type: in vivo, Digitaria sanguinalis; details: for Plant response rating, Crabgrass, Large: preemergence; for Crabgrass, Large plant response rating: postemergence, visual rating, scale 0 (no effect) to 100 (complete control)
# Outline: as §2
# cocklebur = assay: Test B pre-/postemergence herbicide test; assay type: in vivo, Xanthium strumarium; details: for Plant response rating, Cocklebur: preemergence; for Cocklebur plant response rating: postemergence, visual rating, scale 0 (no effect) to 100 (complete control)
# Outline: (§3)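 Seeds were planted and treated preemergence with compounds formulated in a non-phytotoxic solvent mixture containing surfactant, while plants at the 1- to 4-leaf stage (2 to 18 cm) received postemergence sprays. Flooded paddy plants were grown to the 2-leaf stage. After 13 to 15 days in a greenhouse, injury was visually rated 0–100 against untreated controls.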
# wild oat = assay: Test B postemergence herbicide test; assay type: in vivo, Avena fatua; details: postemergence, visual rating, scale 0 (no effect) to 100 (complete control)
# Outline: (§4)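 Scale 0–100: zero equals no visible effect, 100 complete control, judged by eye relative to controls. Timing: 13 to 15 days in greenhouse post-treatment. Growth stage at spraying: two leaves (paddy) or one to four leaves, 2–18 cm (postemergence).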
# velvetleaf = assay: Test B pre-/postemergence herbicide test; assay type: in vivo, Abutilon theophrasti; details: for Plant response rating, Velvetleaf: preemergence; for Velvetleaf plant response rating: postemergence, visual rating, scale 0 (no effect) to 100 (complete control)
# Outline: as §2
# blackgrass = assay: Test B postemergence herbicide test; assay type: in vivo, Alopecurus myosuroides; details: postemergence, visual rating, scale 0 (no effect) to 100 (complete control)
# Outline: as §1
# barnyardgrass [2] = assay: Test B pre-/postemergence herbicide test; assay type: in vivo, Echinochloa crus-galli; details: for Plant response rating, Barnyardgrass: preemergence; for Barnyardgrass plant response rating: postemergence, visual rating, scale 0 (no effect) to 100 (complete control)
# Outline: as §3
# Surinam grass = assay: Test B pre-/postemergence herbicide test; assay type: in vivo, Urochloa decumbens; details: for Plant response rating, Surinam Grass: preemergence; for Surinam Grass plant response rating: postemergence, visual rating, scale 0 (no effect) to 100 (complete control)
# Outline: as §2
# barnyardgrass [3] = assay: Test B flooded paddy test; assay type: in vivo, Echinochloa crus-galli; details: 1000 g ai/ha, visual rating, scale 0 to 100 (0 no effect, 100 complete control), 13 to 15 days
# Outline: as §1
# giant foxtail = assay: Test B pre-/postemergence herbicide test; assay type: in vivo, Setaria faberi; details: for Plant response rating, Foxtail, Giant: preemergence; for Foxtail, Giant plant response rating: postemergence, visual rating, scale 0 (no effect) to 100 (complete control)
# Outline: as §2
# rice = assay: Test B flooded paddy test; assay type: in vivo, Oryza sativa; details: 1000 g ai/ha, visual rating, scale 0 to 100 (0 no effect, 100 complete control), 13 to 15 days
# Outline: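 Paddy species grown to the 2-leaf stage under flooding; blackgrass sprayed postemergence at 2–18 cm (1- to 4-leaf stage). Plants kept in a greenhouse for 13 to 15 days, then visually rated against controls on 0 (no effect) to 100 (complete control).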
# wheat = assay: Test B postemergence herbicide test; assay type: in vivo, Triticum aestivum; set-up: key to Wheat plant response rating: 0 = no effect, 100 = complete control; details: postemergence, 500 g ai/ha; visual rating, scale 0 (no effect) to 100 (complete control)
# Outline: as §4
# ducksalad = assay: Test B flooded paddy test; assay type: in vivo, Heteranthera limosa; details: 1000 g ai/ha, visual rating, scale 0 to 100 (0 no effect, 100 complete control), 13 to 15 days
# Outline: as §1
# [4] = 500 g ai/ha, visual rating 0-100, 0 no effect, 100 complete control
# [5] = 125 g ai/ha, 0 to 100 scale, 0 is no effect, 100 is complete control
smiles,measurement,setting,value
CCN(CC)C(=O)c1cccc(NC(=O)c2cc(C(C)(C)C)nn2CC)n1 [Compound 145],"Sedge, Umbrella plant response rating",[1],90
same,"Plant response rating, Corn",corn; [4],10
same,Corn plant response rating,corn; 125 g ai/ha,10
same,Corn plant response rating,corn; 500 g ai/ha,20
same,"Plant response rating, Corn",corn; [5],0
same,"Plant response rating, Pigweed",pigweed; [4],100
same,Pigweed plant response rating,pigweed; 125 g ai/ha,90
same,Pigweed plant response rating,pigweed; 500 g ai/ha,100
same,"Plant response rating, Pigweed",pigweed; [5],100
same,"Plant response rating, Crabgrass, Large",large crabgrass; [4],100
same,"Crabgrass, Large plant response rating",large crabgrass; 125 g ai/ha,10
same,"Crabgrass, Large plant response rating",large crabgrass; 500 g ai/ha,10
same,"Plant response rating, Cocklebur",cocklebur; [4],20
same,Cocklebur plant response rating,cocklebur; 125 g ai/ha,0
same,Cocklebur plant response rating,cocklebur; 500 g ai/ha,30
same,"Plant response rating, Cocklebur",cocklebur; [5],0
same,"Oat, Wild plant response rating",wild oat; 125 g ai/ha,10
same,"Oat, Wild plant response rating",wild oat; 500 g ai/ha,30
same,"Plant response rating, Velvetleaf",velvetleaf; [4],100
same,Velvetleaf plant response rating,velvetleaf; 125 g ai/ha,50
same,Velvetleaf plant response rating,velvetleaf; 500 g ai/ha,60
same,"Plant response rating, Velvetleaf",velvetleaf; [5],80
same,Blackgrass plant response rating,blackgrass; 125 g ai/ha,10
same,Blackgrass plant response rating,blackgrass; 500 g ai/ha,10
same,"Plant response rating, Barnyardgrass",barnyardgrass [2]; [4],100
same,Barnyardgrass plant response rating,barnyardgrass [2]; 125 g ai/ha,0
same,Barnyardgrass plant response rating,barnyardgrass [2]; 500 g ai/ha,40
same,"Plant response rating, Barnyardgrass",barnyardgrass [2]; [5],70
same,"Plant response rating, Surinam Grass",Surinam grass; [4],80
same,Surinam Grass plant response rating,Surinam grass; 125 g ai/ha,20
same,Surinam Grass plant response rating,Surinam grass; 500 g ai/ha,20
same,"Plant response rating, Surinam Grass",Surinam grass; [5],30
same,Barnyardgrass plant response rating,barnyardgrass [3],70
same,"Plant response rating, Foxtail, Giant",giant foxtail; [4],100
same,"Foxtail, Giant plant response rating",giant foxtail; 125 g ai/ha,30
same,"Foxtail, Giant plant response rating",giant foxtail; 500 g ai/ha,40
same,"Plant response rating, Foxtail, Giant",giant foxtail; [5],80
same,Rice plant response rating,rice,40
same,Wheat plant response rating,wheat,20
same,Ducksalad plant response rating,ducksalad,70
CCn1nc(C(C)(C)C)cc1C(=O)Nc1cccc(C(=O)NC2CC2)n1 [Compound 146],"Sedge, Umbrella plant response rating",[1],90
same,"Plant response rating, Corn",corn; [4],0
same,Corn plant response rating,corn; 125 g ai/ha,10
same,Corn plant response rating,corn; 500 g ai/ha,30
same,"Plant response rating, Corn",corn; [5],0
same,"Plant response rating, Pigweed",pigweed; [4],100
same,Pigweed plant response rating,pigweed; 125 g ai/ha,80
same,Pigweed plant response rating,pigweed; 500 g ai/ha,90
same,"Plant response rating, Pigweed",pigweed; [5],100
same,"Plant response rating, Crabgrass, Large",large crabgrass; [4],100
same,"Crabgrass, Large plant response rating",large crabgrass; 125 g ai/ha,10
same,"Crabgrass, Large plant response rating",large crabgrass; 500 g ai/ha,20
same,"Plant response rating, Crabgrass, Large",large crabgrass; [5],10
same,"Plant response rating, Cocklebur",cocklebur; [4],0
same,Cocklebur plant response rating,cocklebur; 125 g ai/ha,20
same,Cocklebur plant response rating,cocklebur; 500 g ai/ha,80
same,"Plant response rating, Cocklebur",cocklebur; [5],0
same,"Oat, Wild plant response rating",wild oat; 125 g ai/ha,10
same,"Oat, Wild plant response rating",wild oat; 500 g ai/ha,20
same,"Plant response rating, Velvetleaf",velvetleaf; [4],90
same,Velvetleaf plant response rating,velvetleaf; 125 g ai/ha,50
same,Velvetleaf plant response rating,velvetleaf; 500 g ai/ha,60
same,"Plant response rating, Velvetleaf",velvetleaf; [5],20
same,Blackgrass plant response rating,blackgrass; 125 g ai/ha,10
same,Blackgrass plant response rating,blackgrass; 500 g ai/ha,20
same,"Plant response rating, Barnyardgrass",barnyardgrass [2]; [4],90
same,Barnyardgrass plant response rating,barnyardgrass [2]; 125 g ai/ha,20
same,Barnyardgrass plant response rating,barnyardgrass [2]; 500 g ai/ha,60
same,"Plant response rating, Barnyardgrass",barnyardgrass [2]; [5],40
same,"Plant response rating, Surinam Grass",Surinam grass; [4],30
same,Surinam Grass plant response rating,Surinam grass; 125 g ai/ha,10
same,Surinam Grass plant response rating,Surinam grass; 500 g ai/ha,30
same,"Plant response rating, Surinam Grass",Surinam grass; [5],10
same,Barnyardgrass plant response rating,barnyardgrass [3],60
same,"Plant response rating, Foxtail, Giant",giant foxtail; [4],90
same,"Foxtail, Giant plant response rating",giant foxtail; 125 g ai/ha,20
same,"Foxtail, Giant plant response rating",giant foxtail; 500 g ai/ha,20
same,"Plant response rating, Foxtail, Giant",giant foxtail; [5],10
same,Rice plant response rating,rice,40
same,Wheat plant response rating,wheat,10
same,Ducksalad plant response rating,ducksalad,80
CCNC(=O)c1cc(C)nc(NC(=O)c2cc(C(C)(C)C)nn2CC)c1 [Compound 149],"Sedge, Umbrella plant response rating",[1],60
same,"Plant response rating, Corn",corn; [4],50
same,Corn plant response rating,corn; 125 g ai/ha,10
same,Corn plant response rating,corn; 500 g ai/ha,30
same,"Plant response rating, Corn",corn; [5],10
same,"Plant response rating, Pigweed",pigweed; [4],100
same,Pigweed plant response rating,pigweed; 125 g ai/ha,50
same,Pigweed plant response rating,pigweed; 500 g ai/ha,70
same,"Plant response rating, Pigweed",pigweed; [5],100
same,"Plant response rating, Crabgrass, Large",large crabgrass; [4],100
same,"Crabgrass, Large plant response rating",large crabgrass; 125 g ai/ha,10
same,"Crabgrass, Large plant response rating",large crabgrass; 500 g ai/ha,30
same,"Plant response rating, Crabgrass, Large",large crabgrass; [5],90
same,"Plant response rating, Cocklebur",cocklebur; [4],0
same,Cocklebur plant response rating,cocklebur; 125 g ai/ha,20
same,Cocklebur plant response rating,cocklebur; 500 g ai/ha,100
same,"Plant response rating, Cocklebur",cocklebur; [5],0
same,"Oat, Wild plant response rating",wild oat; 125 g ai/ha,10
same,"Oat, Wild plant response rating",wild oat; 500 g ai/ha,30
same,"Plant response rating, Velvetleaf",velvetleaf; [4],40
same,Velvetleaf plant response rating,velvetleaf; 125 g ai/ha,10
same,Velvetleaf plant response rating,velvetleaf; 500 g ai/ha,50
same,"Plant response rating, Velvetleaf",velvetleaf; [5],0
same,Blackgrass plant response rating,blackgrass; 125 g ai/ha,10
same,Blackgrass plant response rating,blackgrass; 500 g ai/ha,40
same,"Plant response rating, Barnyardgrass",barnyardgrass [2]; [4],90
same,Barnyardgrass plant response rating,barnyardgrass [2]; 125 g ai/ha,0
same,Barnyardgrass plant response rating,barnyardgrass [2]; 500 g ai/ha,30
same,"Plant response rating, Barnyardgrass",barnyardgrass [2]; [5],80
same,"Plant response rating, Surinam Grass",Surinam grass; [4],80
same,Surinam Grass plant response rating,Surinam grass; 125 g ai/ha,10
same,Surinam Grass plant response rating,Surinam grass; 500 g ai/ha,20
same,"Plant response rating, Surinam Grass",Surinam grass; [5],40
same,Barnyardgrass plant response rating,barnyardgrass [3],70
same,"Plant response rating, Foxtail, Giant",giant foxtail; [4],100
same,"Foxtail, Giant plant response rating",giant foxtail; 125 g ai/ha,10
same,"Foxtail, Giant plant response rating",giant foxtail; 500 g ai/ha,10
same,"Plant response rating, Foxtail, Giant",giant foxtail; [5],60
same,Rice plant response rating,rice,50
same,Wheat plant response rating,wheat,10
same,Ducksalad plant response rating,ducksalad,90

# Reference: patent US20060069132A1, “Azolecarboxamide herbicides” (priority 2004, published 2006)
